Values quoted from earlier work, collected in US12371748B2, “Genetic markers for predicting responsiveness to therapy with HDL-raising or HDL mimicking agent” (Hoffmann-La Roche Inc., priority 2014, dated 2025).

Settings: rabbits; cited from earlier work

## CCC(CC)CC1(C(=O)Nc2ccccc2SC(=O)C(C)C)CCCCC1 [dalcetrapib, thioisobutyric acid S-(2-{[1-(2-ethyl-butyl)-cyclohexanecarbonyl]-amino}-phenyl) ester]
  LDL cholesterol: decrease LDL cholesterol
  plasma HDL cholesterol: increase plasma HDL cholesterol
